Measured values from patent US20200172491A1, “SUBSTITUTED 5-(HET-)ARYLPYRAZOLAMIDES AND SALTS THEREOF AND THEIR USE AS HERBICIDAL ACTIVE SUBSTANCES” (Bayer CropScience Aktiengesellschaft, priority 2017, published 2020).

Tests used:
Type in all cases: in vivo
[1] = system: Stellaria media; test: Pre-emergence herbicidal action; conditions: 320 g/ha, scored after about 3 weeks, 100% = plants have died, 0% = like control plants
Description: (§1) Seeds of monocotyledonous and dicotyledonous weed plants and crop plants were placed in plastic or wood-fiber pots and covered with soil. The compounds of the invention, formulated in the form of wettable powders (WP) or as emulsion concentrates (EC), were then applied to the surface of the covering soil as aqueous suspension or emulsion with addition of 0.5% additive at a water application rate equivalent to 600 l/ha. After the treatment, the pots were placed in a greenhouse and kept under good growth conditions for the test plants. After about 3 weeks, the effect of the preparations is scored visually in comparison with untreated controls as percentages. For example, 100% activity=the plants have died, 0% activity=like control plants. Tables B7 to B11 below show the effects of selected compounds of the general formula (I) according to Table A1 at an application rate of 320 g/ha on various harmful plants, which were obtained by the aforementioned experimental procedure.

[2] = system: Viola tricolor; test: Pre-emergence herbicidal action; conditions: 320 g/ha, scored after about 3 weeks, 100% = plants have died, 0% = like control plants
Description: as §1

[3] = system: Matricaria inodora; test: Pre-emergence herbicidal action; conditions: 320 g/ha, scored after about 3 weeks, 100% = plants have died, 0% = like control plants
Description: as §1

[4] = system: Amaranthus retroflexus; test: Pre-emergence herbicidal action; conditions: 320 g/ha, scored after about 3 weeks, 100% = plants have died, 0% = like control plants
Description: as §1

[5] = system: Stellaria media; test: Post-emergence herbicidal action; conditions: 320 g/ha, rated after about 3 weeks, 100% = plants have died, 0% = like control plants
Protocol: (§2) Seeds of monocotyledonous and dicotyledonous weeds and crop plants were placed in sandy loam in plastic or wood-fiber pots, covered with soil and cultivated in a greenhouse under controlled growth conditions. 2 to 3 weeks after sowing, the test plants were treated at the one-leaf stage. The compounds of the invention, formulated in the form of wettable powders (WP) or as emulsion concentrates (EC), were then sprayed onto the green parts of the plants as aqueous suspension or emulsion with addition of 0.5% additive at a water application rate of 600 l/ha (converted). After the test plants had been kept in the greenhouse under optimum growth conditions for about 3 weeks, the activity of the preparations was rated visually in comparison to untreated controls. For example, 100% activity=the plants have died, 0% activity=like control plants. Tables B1 to B6 below show the effects of selected compounds of the general formula (I) according to Table A1 at an application rate of 320 g/ha on various harmful plants, which were obtained by the aforementioned experimental procedure.

[6] = system: Viola tricolor; test: Post-emergence herbicidal action; conditions: 320 g/ha, rated after about 3 weeks, 100% = plants have died, 0% = like control plants
Protocol: as §2

[7] = system: Veronica persica; test: Post-emergence herbicidal action; conditions: 320 g/ha, rated after about 3 weeks, 100% = plants have died, 0% = like control plants
Protocol: as §2

[8] = system: Amaranthus retroflexus; test: Post-emergence herbicidal action; conditions: 320 g/ha, rated after about 3 weeks, 100% = plants have died, 0% = like control plants
Protocol: as §2

[9] = system: Veronica persica; test: Pre-emergence herbicidal action; conditions: 320 g/ha, scored after about 3 weeks, 100% = plants have died, 0% = like control plants
Description: as §1

| SMILES | herbicidal activity on Stellaria media (visual rating vs untreated controls) [1] | herbicidal activity on Viola tricolor (visual rating vs untreated controls) [2] | herbicidal activity on Matricaria inodora (visual rating vs untreated controls) [3] | herbicidal activity on Amaranthus retroflexus (visual rating vs untreated controls) [4] | herbicidal activity on Stellaria media (visual rating vs untreated controls) [5] | herbicidal activity on Viola tricolor (visual rating vs untreated controls) [6] | herbicidal activity on Veronica persica (visual rating vs untreated controls) [7] | herbicidal activity on Amaranthus retroflexus (visual rating vs untreated controls) [8] | herbicidal activity on Veronica persica (visual rating vs untreated controls) [9] |
| --- | --- | --- | --- | --- | --- | --- | --- | --- | --- |
| Cc1nn(C)c(-c2ccc(F)cc2Cl)c1C(=O)Nc1cccc2c1C(C)OC2(C)C (stereo not shown) [I-019] | 100% | 100% | 100% | 100% | 80% | 100% | 100% | 100% |  |
| Cc1cccc(NC(=O)c2c(C)nn(C)c2-c2ccc(F)cc2Cl)c1 [I-022] | 100% |  | 100% | 100% | 100% | 100% | 100% | 100% | 100% |
